Experimental data published in patent US20250288548A1, “INTRANASAL BACLOFEN” (THE REGENTS OF THE UNIVERSITY OF CALIFORNIA, priority 2022, published 2025).

Key:
[1] = at therapeutically effective intrathecal concentrations; cited from earlier work
[2] = system: patients with new acquired brain injury; assay: Intranasal baclofen study in about 40 hospitalized patients (measured torque response, clinical response); type: in vivo, human
From the text: FIG. 1 represents the summarized results of a study of about 40 patients. Grey bars represent patients treated with nasal baclofen, and white bars represent placebo. Bars to the left (negative) represent reduced tone, and right (positive) is worse tone. The middle line is no change. Statistically significant results are provided with error bars in this figure.
The first bar chart from left to right is baseline compared to visit 2 low dose (250 mcg). The second bar chart from left to right is baseline compared to visit 3 moderate dose (1000 mcg). The third bar chart from left to right is baseline compared to visit 4 high dose (2000 mcg). The fourth bar chart from left to right is baseline compared to visit 5 weaned off back to baseline (providing some residual effect). The p-values for the third panel, which represents the high dose are: Treatment p-value 0.004959, and Control p-value 0.232.
Forty (40) hospitalized patients with new acquired brain injury acutely treated in the PICU have been treated with intranasal baclofen. Aqueous intranasal solutions comprising 250 mcg, 1000 mcg, and/or 2000 mcg of baclofen and […] of sodium chloride per mL exploiting the nasal pathway have delivered baclofen to the CNS by circumventing the BBB. […]

[3] = system: patient with increased tone after explantation of intrathecal baclofen pump; assay: Individual intranasal baclofen test dose in PICU patient; type: in vivo, human; details: gablofen 2-50 mcg vials delivered intranasally as one administration; all enteral medications held
From the text: A patient was admitted to a pediatric intensive care unit (PICU) due to increased tone after the patient had underwent surgical explantation of an intrathecal baclofen pump. The patient was on maximum doses of several enteral medications including enteral baclofen. They were given a test dose of intranasal baclofen administered in the PICU using commercially prepared intrathecal baclofen for test dose (gablofen 2-50 mcg vials delivered intranasally as one administration).

[4] = solutions containing phosphate, sulfate, potassium, or magnesium; per U.S. Pat. No. 9,180,108 (also printed: greater than 4, 5, 6, 7 mg/mL); cited from earlier work
[5] = excised bovine nasal tissues; concentration independent transport, no polarized flux; cited from earlier work
[6] = enteral doses ranging from 30 to 90 mg; cited from earlier work

Q: With `NCC(CC(=O)O)c1ccc(Cl)cc1` (centres unmarked) [baclofen, 4-amino-3-(p-chlorophenyl) butyric acid] as the molecule, how does the “plasma concentrations with intrathecal injection relative to oral/enteral administration” value [1] read?
A: 100 times less

Q: What about the “response compared with enteral baclofen” value ([2]; intranasal 250, 1000 and/or 2000 mcg solutions, versus maximized enteral baclofen dose (>90 mg/day)) of the same molecule?
A: far greater than that observed with enteral baclofen

Q: And the “sedation compared with enteral baclofen” value ([2]; intranasal administration)?
A: far less sedation

Q: And the “change in tone after intranasal test dose” value [3]?
A: Significant improvement in tone

Q: And the “concentration of baclofen that can be dissolved” value [4]?
A: greater than 2 mg/mL

Q: And the “mechanism of absorption across nasal tissues” value [5]?
A: primarily absorbed via simple passive diffusion

Q: And the CSF levels [6]?
A: 0.012 to 0.096 µg/mL

Q: What about the plasma levels [6] of the same molecule?
A: 50 to 650 ng/mL
